Assays:
[1] = system: Tyrosine-protein kinase ABL1 (Homo sapiens), P00519 [E255K]; conditions: Compound concentration 1000.0 nM
[2] = system: Tyrosine-protein kinase ABL1 (Homo sapiens), P00519 [Q252H]; conditions: Compound concentration 1000.0 nM
[3] = biological target: Citron Rho-interacting kinase (Homo sapiens) (UniProt O14578); conditions: Compound concentration 1000.0 nM
[4] = biological target: Dual specificity protein kinase CLK4 (Homo sapiens) (UniProt Q9HAZ1); conditions: Compound concentration 1000.0 nM
[5] = biological target: Casein kinase I isoform epsilon (Homo sapiens) (UniProt P49674); conditions: Compound concentration 1000.0 nM
[6] = biological target: Casein kinase II subunit alpha (Homo sapiens) (UniProt P68400); conditions: Compound concentration 1000.0 nM
[7] = biological target: Serine/threonine-protein kinase 17A (Homo sapiens) (UniProt Q9UEE5); conditions: Compound concentration 1000.0 nM
[8] = system: Epidermal growth factor receptor (Homo sapiens), P00533 [UNDEFINED MUTATION]; conditions: Compound concentration 1000.0 nM
[9] = system: Epidermal growth factor receptor (Homo sapiens), P00533 [UNDEFINED MUTATION]; conditions: Compound concentration 1000.0 nM; remark: listed apart in the source
[10] = biological target: Ephrin type-A receptor 7 (Homo sapiens) (UniProt Q15375); conditions: Compound concentration 1000.0 nM
[11] = system: Fibroblast growth factor receptor 3 (Homo sapiens), P22607 [G697C]; conditions: Compound concentration 1000.0 nM
[12] = system: Receptor-type tyrosine-protein kinase FLT3 (Homo sapiens), P36888 [UNDEFINED MUTATION]; conditions: Compound concentration 1000.0 nM
[13] = system: Receptor-type tyrosine-protein kinase FLT3 (Homo sapiens), P36888 [N841I]; conditions: Compound concentration 1000.0 nM
[14] = biological target: Receptor-type tyrosine-protein kinase FLT3 (Homo sapiens) (UniProt P36888); conditions: Compound concentration 1000.0 nM
[15] = biological target: Rhodopsin kinase GRK7 (Homo sapiens) (UniProt Q8WTQ7); conditions: Compound concentration 1000.0 nM
[16] = biological target: Glycogen synthase kinase-3 beta (Homo sapiens) (UniProt P49841); conditions: Compound concentration 1000.0 nM
[17] = biological target: Insulin receptor (Homo sapiens) (UniProt P06213); conditions: Compound concentration 1000.0 nM
[18] = biological target: Insulin receptor-related protein (Homo sapiens) (UniProt P14616); conditions: Compound concentration 1000.0 nM
[19] = biological target: Interleukin-1 receptor-associated kinase 4 (Homo sapiens) (UniProt Q9NWZ3); conditions: Compound concentration 1000.0 nM
[20] = system: Mast/stem cell growth factor receptor Kit (Homo sapiens), P10721 [D816V]; conditions: Compound concentration 1000.0 nM
[21] = biological target: MAP kinase-activated protein kinase 5 (Homo sapiens) (UniProt Q8IW41); conditions: Compound concentration 1000.0 nM
[22] = biological target: Serine/threonine-protein kinase MARK1 (Homo sapiens) (UniProt Q9P0L2); conditions: Compound concentration 1000.0 nM
[23] = biological target: MAP/microtubule affinity-regulating kinase 3 (Homo sapiens) (UniProt P27448); conditions: Compound concentration 1000.0 nM
[24] = biological target: Serine/threonine-protein kinase MRCK beta (Homo sapiens) (UniProt Q9Y5S2); conditions: Compound concentration 1000.0 nM
[25] = biological target: Serine/threonine-protein kinase Nek10 (Homo sapiens) (UniProt Q6ZWH5); conditions: Compound concentration 1000.0 nM
[26] = biological target: Serine/threonine-protein kinase Nek11 (Homo sapiens) (UniProt Q8NG66); conditions: Compound concentration 1000.0 nM
[27] = biological target: Serine/threonine-protein kinase PAK 4 (Homo sapiens) (UniProt O96013); conditions: Compound concentration 1000.0 nM
[28] = system: Phosphatidylinositol 4,5-bisphosphate 3-kinase catalytic subunit alpha isoform (Homo sapiens), P42336 [H1047Y]; conditions: Compound concentration 1000.0 nM
[29] = biological target: Serine/threonine-protein kinase pim-1 (Homo sapiens) (UniProt P11309); conditions: Compound concentration 1000.0 nM
[30] = biological target: Serine/threonine-protein kinase PLK4 (Homo sapiens) (UniProt O00444); conditions: Compound concentration 1000.0 nM
[31] = biological target: Protein-tyrosine kinase 2-beta (Homo sapiens) (UniProt Q14289); conditions: Compound concentration 1000.0 nM
[32] = biological target: Serine/threonine-protein kinase RIO2 (Homo sapiens) (UniProt Q9BVS4); conditions: Compound concentration 1000.0 nM
[33] = biological target: NUAK family SNF1-like kinase 2 (Homo sapiens) (UniProt Q9H093); conditions: Compound concentration 1000.0 nM
[34] = biological target: Serine/threonine-protein kinase TAO1 (Homo sapiens) (UniProt Q7L7X3); conditions: Compound concentration 1000.0 nM
[35] = biological target: Serine/threonine-protein kinase tousled-like 1 (Homo sapiens) (UniProt Q9UKI8); conditions: Compound concentration 1000.0 nM
[36] = biological target: High affinity nerve growth factor receptor (Homo sapiens) (UniProt P04629); conditions: Compound concentration 1000.0 nM
[37] = biological target: T1, Muscarinic acetylcholine receptor M1 (Homo sapiens) (UniProt P11229); conditions: Compound concentration 10.0 uM
T1 sequence (whole entry): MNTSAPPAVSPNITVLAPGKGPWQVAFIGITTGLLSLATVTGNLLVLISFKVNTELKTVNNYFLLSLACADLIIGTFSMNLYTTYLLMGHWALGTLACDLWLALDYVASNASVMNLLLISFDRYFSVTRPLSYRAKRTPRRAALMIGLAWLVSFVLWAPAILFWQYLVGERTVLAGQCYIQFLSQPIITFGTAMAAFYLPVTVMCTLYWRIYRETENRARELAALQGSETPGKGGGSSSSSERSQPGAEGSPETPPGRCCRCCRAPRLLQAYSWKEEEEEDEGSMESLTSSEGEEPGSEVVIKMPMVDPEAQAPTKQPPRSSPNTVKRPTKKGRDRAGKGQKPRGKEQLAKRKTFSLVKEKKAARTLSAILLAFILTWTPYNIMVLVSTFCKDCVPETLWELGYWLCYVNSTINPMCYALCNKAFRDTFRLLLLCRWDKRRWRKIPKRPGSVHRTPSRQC

[38] = biological target: Beta-3 adrenergic receptor (Homo sapiens) (UniProt P13945); conditions: Compound concentration 10.0 uM

Chain of Epidermal growth factor receptor (Homo sapiens), P00533 [UNDEFINED MUTATION] (P00533 whole entry, looked up, change not shown): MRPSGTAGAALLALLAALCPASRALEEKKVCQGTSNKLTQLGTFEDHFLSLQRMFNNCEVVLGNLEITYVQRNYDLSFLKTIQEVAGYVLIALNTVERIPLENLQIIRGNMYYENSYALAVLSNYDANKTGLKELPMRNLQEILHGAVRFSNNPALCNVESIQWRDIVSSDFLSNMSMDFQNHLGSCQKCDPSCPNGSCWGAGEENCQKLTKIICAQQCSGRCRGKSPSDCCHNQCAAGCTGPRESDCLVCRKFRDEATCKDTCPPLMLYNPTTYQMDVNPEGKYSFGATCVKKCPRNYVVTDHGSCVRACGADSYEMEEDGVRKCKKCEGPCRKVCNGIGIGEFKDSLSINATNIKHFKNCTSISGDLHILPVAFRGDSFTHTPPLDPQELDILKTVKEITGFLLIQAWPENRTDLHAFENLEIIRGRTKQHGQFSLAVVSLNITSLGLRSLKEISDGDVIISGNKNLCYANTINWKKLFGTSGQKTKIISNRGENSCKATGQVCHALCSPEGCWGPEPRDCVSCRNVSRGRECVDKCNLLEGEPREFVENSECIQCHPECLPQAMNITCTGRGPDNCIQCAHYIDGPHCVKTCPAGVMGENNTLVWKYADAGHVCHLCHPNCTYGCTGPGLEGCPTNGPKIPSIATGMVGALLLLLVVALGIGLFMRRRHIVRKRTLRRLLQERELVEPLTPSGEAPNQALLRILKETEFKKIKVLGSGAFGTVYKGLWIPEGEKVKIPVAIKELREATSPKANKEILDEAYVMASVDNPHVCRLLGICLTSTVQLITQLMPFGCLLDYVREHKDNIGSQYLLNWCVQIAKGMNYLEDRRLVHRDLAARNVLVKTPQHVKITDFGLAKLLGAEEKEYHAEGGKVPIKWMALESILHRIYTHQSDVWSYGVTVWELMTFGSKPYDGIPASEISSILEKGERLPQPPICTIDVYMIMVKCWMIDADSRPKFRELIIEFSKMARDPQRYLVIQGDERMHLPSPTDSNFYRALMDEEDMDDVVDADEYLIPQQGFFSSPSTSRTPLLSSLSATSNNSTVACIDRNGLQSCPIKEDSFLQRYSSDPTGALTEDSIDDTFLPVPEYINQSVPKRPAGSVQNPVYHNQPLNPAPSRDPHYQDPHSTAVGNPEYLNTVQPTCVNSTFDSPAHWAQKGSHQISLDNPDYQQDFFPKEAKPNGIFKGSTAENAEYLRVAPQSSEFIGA
Chain of High affinity nerve growth factor receptor (Homo sapiens) (P04629 33-796 limits assumed): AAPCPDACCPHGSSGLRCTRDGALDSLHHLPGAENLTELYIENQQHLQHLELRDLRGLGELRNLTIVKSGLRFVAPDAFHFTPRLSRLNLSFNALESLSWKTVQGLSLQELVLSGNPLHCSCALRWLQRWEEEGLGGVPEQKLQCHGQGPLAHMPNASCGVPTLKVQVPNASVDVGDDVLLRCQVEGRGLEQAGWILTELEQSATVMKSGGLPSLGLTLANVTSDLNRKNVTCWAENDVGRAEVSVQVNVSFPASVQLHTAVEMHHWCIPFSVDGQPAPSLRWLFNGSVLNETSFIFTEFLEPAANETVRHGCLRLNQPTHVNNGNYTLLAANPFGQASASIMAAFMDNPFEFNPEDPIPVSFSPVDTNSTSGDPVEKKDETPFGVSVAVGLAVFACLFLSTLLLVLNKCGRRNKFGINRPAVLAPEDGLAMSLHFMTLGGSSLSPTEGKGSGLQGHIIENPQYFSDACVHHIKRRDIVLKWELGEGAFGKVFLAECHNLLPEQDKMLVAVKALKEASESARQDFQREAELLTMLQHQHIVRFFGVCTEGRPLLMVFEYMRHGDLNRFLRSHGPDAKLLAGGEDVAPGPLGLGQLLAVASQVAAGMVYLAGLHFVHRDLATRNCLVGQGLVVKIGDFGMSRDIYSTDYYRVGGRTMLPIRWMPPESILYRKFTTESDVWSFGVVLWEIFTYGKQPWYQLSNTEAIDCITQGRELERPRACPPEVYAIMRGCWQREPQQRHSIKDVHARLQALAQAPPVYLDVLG
Chain of Serine/threonine-protein kinase TAO1 (Homo sapiens) (Q7L7X3 whole entry): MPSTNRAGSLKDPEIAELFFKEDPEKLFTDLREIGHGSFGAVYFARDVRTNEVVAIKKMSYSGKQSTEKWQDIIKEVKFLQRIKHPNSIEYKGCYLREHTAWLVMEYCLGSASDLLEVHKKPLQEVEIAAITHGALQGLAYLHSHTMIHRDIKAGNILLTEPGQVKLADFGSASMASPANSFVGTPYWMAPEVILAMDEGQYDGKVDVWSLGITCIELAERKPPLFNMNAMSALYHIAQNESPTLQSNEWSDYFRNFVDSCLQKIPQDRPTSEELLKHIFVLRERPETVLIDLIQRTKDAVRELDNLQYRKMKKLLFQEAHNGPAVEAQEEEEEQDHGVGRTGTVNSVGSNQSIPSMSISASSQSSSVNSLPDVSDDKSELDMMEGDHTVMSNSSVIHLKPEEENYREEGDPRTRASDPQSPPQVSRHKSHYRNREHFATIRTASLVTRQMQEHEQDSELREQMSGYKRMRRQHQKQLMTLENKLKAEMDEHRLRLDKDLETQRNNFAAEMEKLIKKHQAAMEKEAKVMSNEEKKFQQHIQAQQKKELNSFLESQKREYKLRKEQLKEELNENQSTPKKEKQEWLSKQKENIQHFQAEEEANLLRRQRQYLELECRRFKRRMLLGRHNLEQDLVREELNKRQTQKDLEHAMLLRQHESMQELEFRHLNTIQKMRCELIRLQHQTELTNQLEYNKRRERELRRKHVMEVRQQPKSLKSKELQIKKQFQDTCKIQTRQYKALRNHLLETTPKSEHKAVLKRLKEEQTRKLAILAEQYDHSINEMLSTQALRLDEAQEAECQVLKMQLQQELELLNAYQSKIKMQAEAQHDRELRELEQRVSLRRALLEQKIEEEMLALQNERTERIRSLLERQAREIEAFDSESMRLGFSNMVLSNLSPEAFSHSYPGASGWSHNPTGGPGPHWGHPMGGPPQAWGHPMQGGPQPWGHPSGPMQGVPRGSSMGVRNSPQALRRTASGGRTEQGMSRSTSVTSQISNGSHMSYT
Chain of Serine/threonine-protein kinase pim-1 (Homo sapiens) (P11309 whole entry, looked up): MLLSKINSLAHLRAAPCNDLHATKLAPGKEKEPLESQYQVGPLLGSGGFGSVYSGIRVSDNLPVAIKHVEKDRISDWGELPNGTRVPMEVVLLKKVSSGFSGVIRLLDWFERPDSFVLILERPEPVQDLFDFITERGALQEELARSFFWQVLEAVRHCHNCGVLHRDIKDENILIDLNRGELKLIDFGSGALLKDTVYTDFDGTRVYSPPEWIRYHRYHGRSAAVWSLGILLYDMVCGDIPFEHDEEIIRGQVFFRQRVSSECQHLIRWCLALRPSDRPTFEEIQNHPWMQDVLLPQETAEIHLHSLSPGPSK
Chain of Rhodopsin kinase GRK7 (Homo sapiens) (Q8WTQ7 whole entry): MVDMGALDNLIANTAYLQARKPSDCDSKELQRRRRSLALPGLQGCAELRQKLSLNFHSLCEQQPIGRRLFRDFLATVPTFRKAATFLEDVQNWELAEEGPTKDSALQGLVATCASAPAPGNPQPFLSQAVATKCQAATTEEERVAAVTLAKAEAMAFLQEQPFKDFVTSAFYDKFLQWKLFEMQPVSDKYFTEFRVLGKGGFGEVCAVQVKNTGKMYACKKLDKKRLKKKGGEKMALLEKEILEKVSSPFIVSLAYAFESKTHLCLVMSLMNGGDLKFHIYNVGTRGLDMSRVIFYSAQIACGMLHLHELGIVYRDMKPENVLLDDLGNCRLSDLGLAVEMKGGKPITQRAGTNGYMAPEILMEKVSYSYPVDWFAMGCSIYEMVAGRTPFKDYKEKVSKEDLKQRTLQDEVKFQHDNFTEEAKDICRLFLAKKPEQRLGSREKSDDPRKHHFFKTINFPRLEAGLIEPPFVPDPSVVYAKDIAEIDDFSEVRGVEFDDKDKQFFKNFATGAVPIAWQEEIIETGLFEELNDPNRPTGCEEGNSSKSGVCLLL
Chain of Dual specificity protein kinase CLK4 (Homo sapiens) (Q9HAZ1 whole entry, looked up, canonical isoform): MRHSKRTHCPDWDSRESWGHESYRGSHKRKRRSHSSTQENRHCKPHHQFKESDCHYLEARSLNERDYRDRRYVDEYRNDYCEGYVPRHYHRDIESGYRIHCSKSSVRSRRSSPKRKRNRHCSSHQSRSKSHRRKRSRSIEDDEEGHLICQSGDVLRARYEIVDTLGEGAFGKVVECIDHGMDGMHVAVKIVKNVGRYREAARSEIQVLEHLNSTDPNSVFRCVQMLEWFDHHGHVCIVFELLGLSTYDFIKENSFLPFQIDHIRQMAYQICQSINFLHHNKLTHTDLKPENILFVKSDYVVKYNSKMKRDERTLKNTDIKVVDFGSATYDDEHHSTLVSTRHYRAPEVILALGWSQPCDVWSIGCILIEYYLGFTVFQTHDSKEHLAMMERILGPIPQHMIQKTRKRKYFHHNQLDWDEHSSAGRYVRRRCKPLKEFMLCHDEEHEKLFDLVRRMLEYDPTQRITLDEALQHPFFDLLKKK
Chain of NUAK family SNF1-like kinase 2 (Homo sapiens) (Q9H093 whole entry): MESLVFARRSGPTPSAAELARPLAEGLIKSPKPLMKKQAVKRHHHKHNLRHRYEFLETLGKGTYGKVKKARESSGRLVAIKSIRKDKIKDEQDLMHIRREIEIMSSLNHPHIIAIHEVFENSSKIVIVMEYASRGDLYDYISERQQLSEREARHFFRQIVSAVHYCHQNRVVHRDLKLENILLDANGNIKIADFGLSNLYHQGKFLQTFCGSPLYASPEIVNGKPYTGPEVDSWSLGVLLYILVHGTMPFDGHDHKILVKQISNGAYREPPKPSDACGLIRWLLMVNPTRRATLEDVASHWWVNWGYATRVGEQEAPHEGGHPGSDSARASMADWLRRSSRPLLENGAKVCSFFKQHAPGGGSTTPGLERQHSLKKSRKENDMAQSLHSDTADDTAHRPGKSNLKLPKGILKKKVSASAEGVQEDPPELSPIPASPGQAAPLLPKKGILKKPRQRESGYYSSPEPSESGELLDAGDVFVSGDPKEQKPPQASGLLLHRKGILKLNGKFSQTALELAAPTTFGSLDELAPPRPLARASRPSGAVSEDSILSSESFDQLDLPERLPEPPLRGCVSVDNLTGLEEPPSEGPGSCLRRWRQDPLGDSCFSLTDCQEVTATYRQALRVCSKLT

N#CC1(c2ccccn2)CCN(Cc2cc(C(=O)O)c(=O)n3ccccc23)CC1 [MSD-M1PAM]
inactive: residual activity [1] 100% | residual activity [2] 72% | residual activity [3] 98% | residual activity [4] 100% | residual activity [5] 100% | residual activity [6] 86% | residual activity [7] 100% | residual activity [8] 97% | residual activity [9] 96% | residual activity [10] 100% | residual activity [11] 100% | residual activity [12] 92% | residual activity [13] 97% | residual activity [14] 80% | residual activity [15] 77% | residual activity [16] 100% | residual activity [17] 74% | residual activity [18] 97% | residual activity [19] 83% | residual activity [20] 100% | residual activity [21] 56% | residual activity [22] 94% | residual activity [23] 100% | residual activity [24] 96% | residual activity [25] 93% | residual activity [26] 89% | residual activity [27] 100% | residual activity [28] 100% | residual activity [29] 99% | residual activity [30] 90% | residual activity [31] 100% | residual activity [32] 92% | residual activity [33] 77% | residual activity [34] 100% | residual activity [35] 97% | residual activity [36] 88% | inhibition [37] -1% | inhibition [38] -5.05%

N#CC1(c2ccccn2)CCN(Cc2cc(C(=O)N3CCCC3)c(=O)n3ccccc23)CC1
inactive: residual activity [1] 87% | residual activity [2] 90% | residual activity [3] 99% | residual activity [4] 97% | residual activity [5] 100% | residual activity [6] 100% | residual activity [7] 96% | residual activity [8] 77% | residual activity [9] 81% | residual activity [10] 100% | residual activity [11] 98% | residual activity [12] 100% | residual activity [13] 100% | residual activity [14] 98% | residual activity [15] 87% | residual activity [16] 100% | residual activity [17] 88% | residual activity [18] 93% | residual activity [19] 100% | residual activity [20] 100% | residual activity [21] 100% | residual activity [22] 100% | residual activity [23] 87% | residual activity [24] 63% | residual activity [25] 96% | residual activity [26] 63% | residual activity [27] 100% | residual activity [28] 64% | residual activity [29] 100% | residual activity [30] 87% | residual activity [31] 86% | residual activity [32] 95% | residual activity [33] 100% | residual activity [34] 100% | residual activity [35] 85% | residual activity [36] 100% | inhibition [37] -2.01% | inhibition [38] 17.4%

— ChEMBL document CHEMBL4507295 (2021)
